From PubChem BioAssay (NCI)
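Assay format: 96-well plates, 48-hour exposure. Here, GI50 denotes the concentration required for 50% inhibition of growth. TGI marks complete inhibition of growth.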

Key:
Assay in all cases: DTP human tumour cell line panel, 48 h
A549 NSCLC = tested on: A549 NSCLC
ACHN renal = tested on: ACHN renal
COLO 205 colon = tested on: COLO 205 colon
HOP-62 NSCLC = tested on: HOP-62 NSCLC
IGROV1 ovarian = tested on: IGROV1 ovarian
M14 melanoma = tested on: M14 melanoma
MOLT-4 leukemia = tested on: MOLT-4 leukemia
SW-620 colon = tested on: SW-620 colon
DU-145 prostate = tested on: DU-145 prostate
T-47D breast = tested on: T-47D breast

Structure (SMILES) | TGI (A549 NSCLC) | TGI (ACHN renal) | TGI (COLO 205 colon) | TGI (HOP-62 NSCLC) | TGI (IGROV1 ovarian) | TGI (M14 melanoma) | TGI (MOLT-4 leukemia) | TGI (SW-620 colon) | GI50 (ACHN renal) | GI50 (DU-145 prostate) | TGI (DU-145 prostate) | GI50 (IGROV1 ovarian) | GI50 (A549 NSCLC) | GI50 (COLO 205 colon) | GI50 (HOP-62 NSCLC) | GI50 (M14 melanoma) | GI50 (MOLT-4 leukemia) | GI50 (SW-620 colon) | GI50 (T-47D breast) | TGI (T-47D breast)
COC(=O)C(C(=O)C(=O)Nc1ccc([N+](=O)[O-])cc1)c1nc2cc(C)c(C)cc2[nH]c1=O (centres undefined) | > 100 µM | > 100 µM | > 100 µM | > 100 µM | > 100 µM | > 100 µM | > 100 µM | > 100 µM |  |  |  |  |  |  |  |  |  |  |  | 
N=C(N)c1ccc(-c2ccc(-c3ccc(Cl)c(Cl)c3)o2)nc1 |  | 3.22 µM |  |  | 3.59 µM |  |  |  | 1.74 µM | 1.89 µM | 3.62 µM | 1.86 µM |  |  |  |  |  |  |  | 
C[CH2][Sn]([Cl])([CH2]C)[CH2]C | 5.04 µM | 8.27 µM | 3.8 µM | 4.14 µM | 5.22 µM | 5.46 µM | 2.96 µM | 10.9 µM | 1.46 µM |  |  | 0.646 µM | 1.18 µM | 1.48 µM | 1.04 µM | 1.27 µM | 0.369 µM | 0.57 µM |  | 
O=c1nc(-c2ccccc2)scc1-c1ccccc1 | > 100 µM | > 100 µM | > 100 µM | > 100 µM | > 100 µM | > 100 µM | > 100 µM | > 100 µM |  |  |  |  |  |  |  |  |  |  |  | 
COc1ccc2cc(C(=O)/C=C/c3ccco3)ccc2c1 | > 100 µM | 79.1 µM | > 100 µM |  | > 100 µM | 12.6 µM | > 100 µM | > 100 µM | 29.4 µM | 23.9 µM | 88.6 µM | 30.3 µM | 31.8 µM | 51.2 µM |  | 0.19 µM | 41.7 µM | 35 µM | > 100 µM | > 100 µM
C/C=C/C=C\C(=O)C1c2cccc(O)c2C(=O)c2c(O)cc(C)cc21 (centres undefined) | 2.13 µM | 2.66 µM | 2.99 µM | 4.27 µM | 2.91 µM |  | 8.19 µM | 2.55 µM |  |  |  |  |  |  |  |  |  |  |  | 
O=c1[nH]c(=O)n(C2OC(CO)C(O)C2O)cc1OCc1ccccc1 (centres undefined) | > 100 µM | > 100 µM | > 85.2 µM | > 100 µM | > 100 µM | > 100 µM | > 100 µM | > 71.8 µM |  |  |  |  |  |  |  |  |  |  |  | 
C[C@]12CC/C(=N\OC(=O)Nc3ccccc3)C=C1CC[C@@H]1C2CC[C@@]2(C)C1CC[C@@H]2OC(=O)Nc1ccccc1 (some centres undefined) | > 100 µM | > 100 µM | > 100 µM |  | > 100 µM | > 100 µM | > 100 µM | > 100 µM |  |  |  |  |  |  |  |  |  |  |  | 
CCC[CH2][Ge]([CH2]CCC)([CH2]CCC)[O]C(=O)C(OC(C)=O)c1ccccc1 (centres undefined) | 30.9 µM | 19.8 µM | 20.9 µM | 16.1 µM | 25.8 µM | 6.57 µM | > 100 µM | 20.6 µM | 2.76 µM |  |  | 11.2 µM | 3.37 µM | 6.37 µM | 2.18 µM | 1.05 µM | 0.153 µM | 4.59 µM |  | 
O=C(c1ccncc1)N1CCN(C2=NS(=O)(=O)c3ccccc3N2c2ccccc2)CC1 | > 100 µM | 53.6 µM | > 100 µM | 32.3 µM | > 100 µM | > 100 µM |  | 57.1 µM | 11.1 µM | 7.77 µM | > 100 µM | 25.1 µM | 20.6 µM | 30.3 µM | 8.06 µM | 13.3 µM |  | 15.5 µM | 10.9 µM | 57.5 µM
O=C1c2ccccc2CCC1(Br)Br | 19.1 µM | 2.55 µM | 2.06 µM | 17.8 µM | 5.98 µM | 5.12 µM | 3.94 µM | 1.53 µM | 1.21 µM | 3.73 µM | 12 µM | 2.59 µM | 6.84 µM | 0.671 µM | 6.32 µM | 2.08 µM | 0.631 µM | 0.384 µM |  | 
CCOC1=C2C(C)(CCC3[C@@]4(C)C=CC(=O)C(C)(C)C4CC(O)[C@@]23C)C(c2ccoc2)C1=O (some centres undefined) | 98.6 µM | 37.4 µM | 29.3 µM | 36.8 µM | > 100 µM | > 100 µM | 40.4 µM | 46.2 µM |  |  |  |  |  |  |  |  |  |  |  | 
CCOC(=O)/C(=C/c1ccc(Cl)cc1)N(CC)CC | > 100 µM | > 100 µM | > 100 µM | > 100 µM | > 100 µM | > 100 µM | > 100 µM | > 100 µM |  |  |  |  |  |  |  |  |  |  |  | 
COc1cccc(N2C(=O)[C@H]3[C@H]4CC(C(C)(C)C)CC[C@H]4c4c([nH]c5ccccc45)[C@H]3C2=O)c1 (some centres undefined) | 29 µM |  | 32.2 µM | 31.7 µM | 39.1 µM | 30.7 µM | 25.1 µM | 41 µM |  |  |  |  |  |  |  |  |  |  |  | 
N#CC(C(=O)C(=O)Nc1ccc(Cl)c(Cl)c1)c1ccc(Cl)cc1 (centres undefined) | > 100 µM | > 100 µM | > 100 µM | > 100 µM | > 100 µM | > 100 µM | > 100 µM | 30.8 µM |  |  |  |  |  |  |  |  |  |  |  | 
Cc1[nH]c2ccccc2c1C1=CC(=O)C=CC1=O | 63.9 µM | 12.5 µM | 5.43 µM |  | 27.2 µM | 27.7 µM |  | 23 µM | 3.63 µM | 13.4 µM | 26.8 µM | 12 µM | 21 µM | 2.48 µM |  | 13.6 µM |  | 4.55 µM | 2.65 µM | 5.75 µM
Cc1nn(-c2ccccc2)c(C)c1/C=N/N1CCN(Cc2ccccc2)CC1 | > 100 µM | > 100 µM | > 100 µM | 74.4 µM |  |  | 55.2 µM | > 100 µM | 52.4 µM | 96.4 µM | > 100 µM |  | > 100 µM | 41 µM | 16.3 µM |  | 26.8 µM | > 100 µM |  | 
COc1ccc2c([nH]c3cc(O)c(C)cc32)c1CC=C(C)C | > 25 µM | > 25 µM | > 25 µM |  | > 25 µM | 9.29 µM | 15.9 µM | 20.7 µM | 9.35 µM |  |  |  | 8.47 µM |  |  | 1.62 µM | 4.94 µM | 6.75 µM |  | 
CN1CCc2cc(O)c3cc2C1Cc1ccc(cc1)Oc1cc(ccc1O)CC1c2c(cc4c(c2O3)OCO4)CCN1C (centres undefined) | > 100 µM | > 100 µM | 28.8 µM |  | > 100 µM | 32.2 µM | 85.4 µM |  |  |  |  |  |  |  |  |  |  |  |  | 
